Test [1] relates to rats fed with cholesterol. The test is described as follows: in vivo antihyperlipoproteinemic test, rats fed cholesterol fodder for 7 days (Table 1). Details: species or system Whistar hannover male rats. The note with it: rat; for change in vivo at 100 mg/kg / change in vivo at 30 mg/kg: po; for change in vivo at 100 mg/kg: 100.0 mg/kg p.o.; for change in vivo at 30 mg/kg: 30.0 mg/kg p.o. An excerpt: (§1) Whistar hannover male rats weighing 140-160 g were fed for 7 days with a rat fodder supplemented with 1.5% of cholesterol, 0.5% of sodium cholate and 5% of solid fat. (Schurr, P. E.; Schultz, J. R., Day, D. E.; Atherosclerosis Drug Discovery Ed.: C. E. Day, Plenum, New York 215 (1976) and Acta Pharm. Hung., 49, 182. (1979) During this time the total cholesterol level of the serum increased with 200-250% compared to the normal level, while the amount of the HDL chloesterol diminished by 45-50%. Groups consisting of six animals were formed. The compounds of the invention were administered orally starting on the fourth day of the addition of the cholesterol fodder and it was continued by the end of the experiments, by the seventh day, in one or two doses. Then after a 18 hour starving the animals were bled to death under etheric narcosis on the 8th day. The blood samples were centrifuged and the serum total cholesterol and the HDL cholesterol were determined by Backmann enzymatic test, while the triglyceride concentration of the serum was determined by Van Handel's method (J. Lab.: Clin. Med. 41, 486 (1953). The amount of the LDL+VLDL was measured by manganese precipitation turbidimetrically (Schurr, P. E., Schulz, J. R., Day, C. E.: Atherosclerosis Drug Discovery Ed.: C. E. Day, Plenum Press, New York 215 (1976). The antiaggreagtion activity was measured in vitro on human plasm being rich in thrombocytes by a Chrono-log aggregometer. The aggregation was induced by ADP, adrenaline, collagen and arachidonic acid. […]. The lipidperoxidation was induced by N-ethyl-alenicimide (Arzneimittel-Forschung 29, 981 (1979).

Test [2] concerns rats with the cholesterol diet. The test can be described thus: in vivo test in rats with the cholesterol diet, 10 day treatments (Table 2). The following applies: rat, 10 day treatment, 100.0 mg/kg p.o. On the procedure: as §1, with “Whistar hannover male rats weighing 140-160 g were fed for 7 days with a rat fodder supplemented with 1.5% of cholesterol, 0.5% of sodium cholate and 5% of solid fat.” left out, “The compounds of the invention were administered orally starting on the fourth day of the addition of the cholesterol fodder and it was continued by the end of the experiments, by the seventh day, in one or two doses.” left out
The affect of compound no. 0202479 to the rats with the
cholesterol diet in 10 day treatments

For a further test, the system named is platelet aggregation. The following applies: cited from earlier work.
Setting [3] is: read-out: HDL cholesterol % change.
Setting [4] is: read-out: serum cholesterol change.
Where [5] appears, read: serum, read-out: triglyceride change.

Structures can show the parent of a compound that is named as a salt. Where two headings read alike, the source gives them in different places.

Turning to `CCOC(=O)C(C)(C)Oc1ccc(Cl)cc1` [Clofibrate, 2-(4-chlorophenoxy)isobutyric ethyl ester, reference compound], the change in vivo at 100 mg/kg was -20% in test [1] (setting [3]), -11.2% in test [1] (read-out: LDL + VLDL % change), -24.7% in test [1] (setting [4]) and -20% in test [1] (setting [5]). The “Serum cholesterol percentile change” value in test [2] was -23.0 percentile change. The “HDL cholesterol percentile change” value in test [2] (** P 0.01) is -7.4 percentile change. Also, in test [2] (** P 0.01), the “LDL + VLDL percentile change” value is -37.9 percentile change. In test [2] (** P 0.01), this compound displayed a triglyceride percentile change of -24.5 percentile change. Besides, the IC50 was 100 µM in the test with platelet aggregation (ADP induced aggregation, read-out: medium inhibitory concentration, ADP); 700 µM in the test on platelet aggregation (adrenaline induced aggregation, read-out: medium inhibitory concentration, Adrenaline); 5000 µM in the test on platelet aggregation (arachidonic acid induced aggregation, read-out: medium inhibitory concentration, Arachidonic acid); 1700 µM in the test with platelet aggregation (collagen induced aggregation, read-out: medium inhibitory concentration, Collagene). Moreover, the “inhibition of aggregation induced by arachidonic acid, in words” value in the test with platelet aggregation (compared with compound at 250 μM) is given as “ineffective”.

Take `CC(=O)CCn1c(=S)n(CCC(C)=O)c2cc(Cc3ccccc3)ccc21` [compound 0200058, 1,3-bis(3-Oxo-butyl)-5-benzyl-2-thioxo-benzimidazole]: the change in vivo at 30 mg/kg is 30% in test [1] (setting [3]), -19.4% in test [1] (read-out: LDL + VLDL % change), -14% in test [1] (setting [4]) and 1% in test [1] (setting [5]). Further, the change in vivo at 100 mg/kg was 44.9% in test [1] (setting [3]), -9.4% in test [1] (read-out: LDL + VLDL % change), -10.6% in test [1] (setting [4]) and 12.8% in test [1] (setting [5]). Besides, the “increase of HDL(-cholesterol)” value in test [1] (100 mg/kg) is given as 45%. The “total cholesterol of the serum, in words” value in test [1] (100 mg/kg) is “smaller decrease of the level of the total cholesterol of the serum”.

Consider `O=C(O)CC(Sc1nc2ccc(C(=O)c3ccccc3)cc2[nH]1)C(=O)O` (stereo not drawn) [compound 0200086, S-(5-Benzoyl-2-benzimidazolyl)-2-thio-succinic acid], for which the change in vivo at 30 mg/kg in test [1] (setting [3]) was -35%; in test [1] (read-out: LDL + VLDL % change), -22.1%; in test [1] (setting [4]), -26%; in test [1] (setting [5]), -24.9%. Also, the change in vivo at 100 mg/kg in test [1] (setting [3]) was 19.4%; in test [1] (read-out: LDL + VLDL % change), -24.8%; in test [1] (setting [4]) it was -35.4%; in test [1] (setting [5]), -27.2%.

In the case of `O=C(O)CC(Sc1nc2ccc(Cc3ccccc3)cc2[nH]1)C(=O)O` (stereo not drawn) [compound 0200131, S-(5-Benzyl-2-benzimidazolyl)-2-thio-succinic acid], the change in vivo at 30 mg/kg in test [1] (setting [3]) is 10%; in test [1] (read-out: LDL + VLDL % change), -17.5%; in test [1] (setting [4]) it was -17.4%; in test [1] (setting [5]), -18.8%. The change in vivo at 100 mg/kg in test [1] (setting [3]) is 57%; in test [1] (read-out: LDL + VLDL % change), -5.9%; in test [1] (setting [4]), -16.9%; in test [1] (setting [5]) it was -25.4%.

Regarding `CC(=O)CCn1c(=S)[nH]c2cc(Cc3ccccc3)ccc21` [compound 0200427, 1-(5-Benzyl-2-thioxo-1-benzimidazolyl)-3-butanone], in test [1] (setting [3]), the change in vivo at 30 mg/kg is -17.7% and the change in vivo at 100 mg/kg is -12.1%. In test [1] (read-out: LDL + VLDL % change), the change in vivo at 30 mg/kg was -58.2% and the change in vivo at 100 mg/kg is -54.4%. Moreover, in test [1] (setting [4]), the change in vivo at 30 mg/kg is -45.5% and the change in vivo at 100 mg/kg is -51.7%. In test [1] (setting [5]), the change in vivo at 30 mg/kg was -63.5% and the change in vivo at 100 mg/kg was -67.2%. In test [1] (100 mg/kg), the “HDL level, in words” value is on record as “decreased the HDL level, though in smaller extent”; the “decrease of the LDL+VLDL level” value amounted to 54.4%; the “decrease of the serum triglyceride” value stood at 67.2%; the “decrease of the total serum cholesterol level” value amounted to 51.7%. Moreover, the “overall lipid/lipoprotein activity, in words” value in test [1] (100 mg/kg) was “Especially great serum lipid decreasing activity”.

On to `CC(=O)CSc1nc2ccc(Cc3ccccc3)cc2[nH]1` [compound 0202002, 1-((5-benzyl-2-benzimidazolyl)thio)-2-propanone], for which the change in vivo at 30 mg/kg in test [1] (setting [3]) is -16.9%; in test [1] (read-out: LDL + VLDL % change), -0.38%; in test [1] (setting [4]), -22%; in test [1] (setting [5]), 27.8%. For the same compound, the change in vivo at 100 mg/kg in test [1] (setting [3]) is -16.9%; in test [1] (read-out: LDL + VLDL % change) it was -55.8%; in test [1] (setting [4]), -68%; in test [1] (setting [5]) it was -29.4%.

For `Br.C=CCSc1nc2ccc(Cc3ccccc3)cc2[nH]1` [compound 0202154, 5-Benzyl-2-(2-propenylthio)-benzimidazole hydrobromide], in test [1] (setting [3]), the change in vivo at 30 mg/kg amounted to 27% and the change in vivo at 100 mg/kg was 71.3%. In test [1] (read-out: LDL + VLDL % change), the change in vivo at 30 mg/kg was -38.1% and the change in vivo at 100 mg/kg is -57.5%. In addition, in test [1] (setting [4]), the change in vivo at 30 mg/kg is -34.5% and the change in vivo at 100 mg/kg is -49.3%. Moreover, in test [1] (setting [5]), the change in vivo at 30 mg/kg was -30% and the change in vivo at 100 mg/kg was -25.3%. Moreover, in test [1] (100 mg/kg), the “decrease of the LDL+VLDL level” value is given as 57.5%, the “decrease of the serum triglyceride” value was determined as 25.3%, the “decrease of the total serum cholesterol level” value amounted to 49.3% and the “increase of HDL(-cholesterol)” value is recorded as 71.3%. For the same compound, the “overall lipid/lipoprotein activity, in words” value in test [1] (100 mg/kg) is “very effective”.

As to `OCCCSc1nc2ccc(Cc3ccccc3)cc2[nH]1` [compound 0202367, 5-Benzyl-2-(3-hydroxypropylthio)-benzimidazole], the change in vivo at 30 mg/kg in test [1] (setting [3]) was 47.1%; in test [1] (read-out: LDL + VLDL % change) it was -45.2%; in test [1] (setting [4]), -37.4%; in test [1] (setting [5]) it was -19%. Moreover, the change in vivo at 100 mg/kg was 26% in test [1] (setting [3]), -50.7% in test [1] (read-out: LDL + VLDL % change), -42.6% in test [1] (setting [4]) and -16.1% in test [1] (setting [5]).

Regarding `OCCSc1nc2ccc(Cc3ccccc3)cc2[nH]1` [compound 0202377, 5-Benzyl-2-(2-hydroxyethylthio)-benzimidazole], the change in vivo at 30 mg/kg is -13.5% in test [1] (setting [3]), 1% in test [1] (read-out: LDL + VLDL % change), -36.5% in test [1] (setting [4]) and 58% in test [1] (setting [5]). Moreover, the change in vivo at 100 mg/kg in test [1] (setting [3]) was 61.2%; in test [1] (read-out: LDL + VLDL % change) it was -14.5%; in test [1] (setting [4]), -52.4%; in test [1] (setting [5]), 116%. The “LDL+VLDL level, in words” value in test [1] (100 mg/kg) was “decreased is smaller extent”. Further, in test [1] (100 mg/kg), the “decrease of the total serum cholesterol level” value was 52.4. The “increase of HDL(-cholesterol)” value in test [1] (100 mg/kg) is 61.2%.

As for `C#CCSc1nc2ccc(Cc3ccccc3)cc2[nH]1` [compound 0202647, 5-Benzyl-2-(2-propinylthio)-benzimidazole], in test [1] (100 mg/kg), the “decrease of the LDL+VLDL level” value is on record as 41.5; the “decrease of the total serum cholesterol level” value was 34.5; the “increase of HDL(-cholesterol)” value is 49%; the “overall lipid/lipoprotein activity, in words” value is listed as “especially excellent activity”.

Take `CCOC(=O)CC(=O)CSc1nc2ccc(Cc3ccccc3)cc2[nH]1` [compound 0203232, 4-[(5-Benzyl-2-benzimidazolyl)thio]acetoacetic acid ethylester hydrochloride]: the change in vivo at 30 mg/kg is 6.8% in test [1] (setting [3]), -27.6% in test [1] (read-out: LDL + VLDL % change), -32.1% in test [1] (setting [4]) and 29.3% in test [1] (setting [5]). In addition, the change in vivo at 100 mg/kg is 6.8% in test [1] (setting [3]), -45.9% in test [1] (read-out: LDL + VLDL % change), -48.6% in test [1] (setting [4]) and -18.3% in test [1] (setting [5]).
